Square brackets hold non-standard residues; d marks the D form. Side chains are listed from the residue outwards. Peptide text beside a SMILES is read from it. * marks the point of attachment. Phe(4-NH2) = Nc1ccc(C[C@H](N)C(=O)O)cc1; Tos = Cc1ccc(S(=O)(=O)*)cc1; Boc = CC(C)(C)OC(=O)*; Cam = NC(=O)C*

These results are taken from patent US6492421B1, “Substituted phenylalanine type compounds which inhibit leukocyte adhesion mediated by VLA-4” (Athena Neurosciences, Inc., priority 1997, dated 2002).

The subject of data set [1] is Experimental Autoimmune (or Allergic) Encephalomyelitis (“EAE”). Kind of data set: In vivo evaluation: Experimental Autoimmune Encephalomyelitis (EAE) model. The arrangement: species or system rats or guinea pigs. Particulars: treatment began on Day 8; 10 mg/kg to 200 mg/kg, bid, for five days; SC, PO or IP.

As usually defined, the melting point is the temperature of the solid-liquid transition. As for `COC(=O)[C@H](Cc1ccc(OCCN2CCC(O)(c3ccccc3)CC2)cc1)NC(=O)[C@@H]1CCCN1S(=O)(=O)c1ccc(C)cc1`, the melting point fell in the range of 122 to 123 °C.

For the compound `Cc1ccc(S(=O)(=O)N2CCC[C@H]2C(=O)N[C@@H](Cc2ccc(NC(=O)[C@@H](C)NC(=O)OC(C)(C)C)cc2)C(=O)O)cc1` [Example 5, N-(Toluene-4-sulfonyl)-L-prolyl-4-[(N-tert-butoxylcarbonyl-D-alanyl)amino]-L-phenylalanine] (Tos-Pro-[Phe(4-NH2)]([dA-Boc])-OH), the “active in EAE model (delayed the onset of symptoms, e.g., clinical scores no greater than 2 or slowed body weight loss as compared to the control)” value in data set [1] is given as “active”.

Regarding `Cc1ccc(S(=O)(=O)N2CCC[C@H]2C(=O)N[C@@H](Cc2ccc(-c3ccccc3C(=O)O)cc2)C(=O)O)cc1` [Example 12, N-(Toluene4-sulfonyl)-L-prolyl-4-[2-(carboxy)phenyl]-L-phenylalanine], the “active in EAE model (delayed the onset of symptoms, e.g., clinical scores no greater than 2 or slowed body weight loss as compared to the control)” value in data set [1] was “active”.

Consider `COC(=O)[C@H](Cc1ccc(N(CCCN(C)C)S(=O)(=O)C(F)(F)F)cc1)NC(=O)[C@@H]1CCCN1S(=O)(=O)c1ccc(C)cc1` [Example 16, N-(Toluene-4-sulfonyl)-L-prolyl-L-4-{N-[3-(N,N-dimethylamino)propyl]-N-[trifluoromethanesulfonyl]amino}-L-phenylalanine Methyl Ester], for which the melting point lay in the range of 45 to 55 °C.

As for `Cc1ccc(S(=O)(=O)N2CCC[C@H]2C(=O)N[C@@H](Cc2ccc(OCCCN(C)C)cc2)C(=O)O)cc1` [Example 18, N-(Toluene-4-sulfonyl)-L-prolyl-4-[3-(N,N-dimethylamino)propoxy]-L-phenylalanine], in data set [1], the “active in EAE model (delayed the onset of symptoms, e.g., clinical scores no greater than 2 or slowed body weight loss as compared to the control)” value was “active”.

In turn, `Cc1ccc(S(=O)(=O)N2CCC[C@H]2C(=O)N[C@@H](Cc2ccc(OCCN(C(C)C)C(C)C)cc2)C(=O)O)cc1` [Example 23, N-(Toluene-4-sulfonyl)-L-prolyl-4-[2-(N,N-diisopropylamino)ethoxy]-L-phenylalanine] gave a melting point of 121 to 124 °C.

Compound `CN(C)CCCOc1ccc(C[C@H](NC(=O)[C@@H]2CCCN2S(=O)(=O)c2cccs2)C(=O)O)cc1` [Example 24, N-(Thiophene-2-sulfonyl)-L-prolyl-4-[3-(N,N-dimethylamino)propoxy]-L-phenylalanine] yielded a melting point of over 200 °C.

Compound `CCN(CC)CCOc1ccc(C[C@H](NC(=O)[C@@H]2CCCN2S(=O)(=O)c2ccc(C)cc2)C(=O)O)cc1` [Example 26, N-(Toluene-4-sulfonyl)-L-prolyl-4-[2-(N,N-diethylamino)ethoxy]-L-phenylalanine] had a melting point of 105 to 109 °C.

Turning to `CN(C)CCCOc1ccc(C[C@H](NC(=O)[C@@H]2CCCN2S(=O)(=O)c2cc(Cl)sc2Cl)C(=O)O)cc1` [Example 27, N-(2,5-Dichlorothiophene-3-sulfonyl)-L-prolyl-4-[3-(N,N-dimethylamino)propoxy]-L-phenylalanine], the melting point is over 200 °C.

With `Cc1ccc(S(=O)(=O)N2CCC[C@H]2C(=O)N[C@@H](Cc2ccc(OCCN3CCCCC3)cc2)C(=O)O)cc1` [Example 46, N-(Toluene-4-sulfonyl)-L-prolyl-4-[2-(piperidin-1-yl)ethoxy]-L-phenylalanine], the melting point lay within 102 to 106 °C.

As to `Cc1ccc(S(=O)(=O)N2CCC[C@H]2C(=O)N[C@@H](Cc2ccc(OCC(=O)O)cc2)C(=O)O)cc1` [Example 56, N-(Toluene-4-sulfonyl)-L-prolyl-4-[(carboxy)methoxy]-L-phenylalanine], the melting point fell in the range of 70 to 73 °C.

As for `Cc1ccc(S(=O)(=O)N2CCC[C@H]2C(=O)N[C@@H](Cc2ccc(OCC(N)=O)cc2)C(=O)O)cc1` [Example 58, N-(Toluene-4-sulfonyl)-L-prolyl-4-[(aminocarbonyl)methoxy]-L-phenylalanine] (Tos-Pro-Tyr(Cam)-OH), the melting point lay in the range of 195 to 196 °C.

For `Cc1ccc(S(=O)(=O)N2CCC[C@H]2C(=O)N[C@@H](Cc2ccc(OCC(=O)NC(C)(C)C)cc2)C(=O)O)cc1` [Example 59, N-(Toluene-4-sulfonyl)-L-prolyl-4-[(N-tert-butylaminocarbonyl)methoxy]-L-phenylalanine], the melting point was in the range of 88 to 89 °C.

For “N-(Toluene-4-sulfonyl)-L-(5,5-dimethyl)thiaprolyl-4-[2-(N,N-dimethylamino)ethoxy]-L-phenylalanine [Example 20]”, the “active in EAE model (delayed the onset of symptoms, e.g., clinical scores no greater than 2 or slowed body weight loss as compared to the control)” value in data set [1] was “active”.
